Assay [1] relates to Saccharomyces cerevisiae wild type strain BY4743. Nature of the assay: AF1 combined gene expression and metabolite data (reactions, pathways, cluster analysis). Type of assay: cell-based. From the text: The data were then combined to determine the number of reactions showing an enzyme and at least one compound perturbed, and to determine the number of pathways having at least one enzyme and one perturbed compound perturbed. The results of the analysis are represented in Tables 16 and 17, and were difficult to interpret, illustrating that the ability to draw conclusions from compound mapping to pathways is limited when absent additional data. […] A coherent data set was created from data obtained from the four above-described drug compounds. The data were reduced by using principle components analysis and cluster analysis.

Assay [2] shares this test system. Nature of the assay: AF1 yeast metabolite analysis by GC-MS and LC-MS. Type of assay: cell-based. As to conditions: for # Compounds perturbed by treatment: 2×MIC, two hours.
Assay [3] shares this test system. Nature of the assay: AF1 yeast gene expression analysis (microarray, KEGG pathway mapping). The format is cell-based. The conditions noted are these: p < 0.05; KEGG mapping. As to the method: Saccharomyces cerevisiae wild type strain BY4743 was purchased from American Type Culture Center (ATCC, Manassas, Va.). The yeast strain was grown in YPD or SD media. H. […] The cultures started from fresh single colonies were grown in 1.0 ml YPD overnight at 30° C. […] The OD600 was adjusted to 1.0 with YPD media, then 2.0 ml of each was inoculated into three 250 ml flasks, each containing 50 ml of SD media. […] The cells were kept growing for another two hours, then collected by centrifugation at 4000 rpm for 5 minutes at 4° C. Pellets were washed once with ice-cold water, then were lyophilized overnight at 4° C. […] Tubes were vortexed for 30 seconds, then incubated for 10 minutes at room temperature (RT). […] Tubes were incubated for 10 minutes at RT. Samples were centrifuged for 20 minutes as before. Pellets were washed with 400 μl 70% ethanol and centrifuged for 10 minutes as before. The pellet was then dissolved in 100 μl nuclease-free water. RNA quality was determined using the Bioanalyzer 2100 and the RNA 6000 assay (Agilent Technologies, Palo Alto, Calif.) according to manufacturer's instructions. RNA concentrations were determined spectrophotometrically by measuring the absorption at 260 nm in an Ultrospec 2000 (Pharmacia Biotech, Piscataway, N.J.). […] Labeled cRNAs were evaluated using the RNA 6000 assay on the Agilent Bioanalyzer 2100. Labeled cRNA concentrations were determined spectrophotometrically by measuring the absorption at 260 nm in an Ultrospec 2000 (Pharmacia Biotech, Piscataway, N.J.). […] Each pair of samples to be hybridized were independently labeled and hybridized utilizing a fluor reversal for a total of two hybridizations per sample pair. The microarrays were scanned simultaneously in the Cy3 and Cy5 channels with Agilent's 48-slide, Dual Laser DNA Microarray Scanner (Agilent Technologies, Palo Alto, Calif.) at 10 μm resolution using default settings. Image Analysis Software (Version A.4.0.45, Agilent Technologies, Palo Alto, Calif.) was used for image analysis. Each feature was determined from an array's associated pattern file and a detection algorithm. Intensity values for each feature were determined after subtracting background derived from an average of negative control features. Features with unusual pixel intensity statistics (e.g., high non-uniformity, saturation in either channel, and the like) were excluded from downstream analyses. Data was loaded into the Rosetta RESOLVER database (Rosetta Inpharmatics Inc., Kirkland, Wash.) for storage and analysis. Data was evaluated after combining results from fluor reversal replicate hybridizations. The annotation of yeast ORFs was obtained from Proteome BIOKNOWLEDGE Library (Incyte Genomics, Palo Alto, Calif.). In AF1, two different technologies were utilized: gene expression analysis (for examination of mRNA expression) and metabolite analysis. […] As noted previously, existing metabolic databases may be helpful in practicing the methods and systems of the present invention, but many databases include limitations that make their use in data analysis and pathway mapping less than straightforward. […] This caveat to KEGG makes it difficult to pinpoint the correct pathway when attempting to link a gene to a specific pathway. The pathway score indicates how meaningful the mapping is, or how likely it is to be correctly indicative of the pathway involved in the perturbation under examination. The method provides a pathway score based on perturbation levels of genes and/or compounds and the information content of each gene and/or compound in the pathway, i.e., a pathway score indicates the extent to which other pathways are mapped to a gene/compound. For example, imagine that two genes are perturbed in a particular experiment.

For assay [4], the system named is Arabidopsis thaliana plants. As to the kind of experiment: SOA1 gene expression analysis (60mer microarray, 6200 genes) of herbicide-treated tissue. The conditions noted are these: SOA1 profiles.
Assay [5] has as its system Arabidopsis thaliana plants. Nature of the assay: SOA1 phenotypic analysis of herbicide-treated plants (incl. MIC/Tmic). Type of assay: in vivo. As to conditions: herbicide-treated plants.

Structures are written as SMILES.

On to `CC(=O)N1CCN(c2ccc(OCC3COC(Cn4ccnc4)(c4ccc(Cl)cc4Cl)O3)cc2)CC1` (stereo not drawn) [Ketoconazole], for which the “Number of Reactions Having an Enzyme and at Least One Compound Perturbed, # Reactions” value in assay [1] is 21. Further, the “# Compounds perturbed by treatment” value in assay [2] (P < 0.1) turned out to be 15. Also, the “Number of Pathways Affected by at Least One Gene, # Pathways” value in assay [3] is reported as 90.
As for `CCc1cccc(C)c1N(C(=O)CCl)C(C)COC` (stereo not drawn) [Metolachlor], in assay [4], the “gene expression profile correlation with bifenox (r)” value is 0.499 and the “gene expression profile correlation with diquat (r)” value is listed as 0.569.
Turning to `OC(Cn1cncn1)(Cn1cncn1)c1ccc(F)cc1F` [Fluconazole], the “Number of Reactions Having an Enzyme and at Least One Compound Perturbed, # Reactions” value in assay [1] is listed as 2. The “# Compounds perturbed by treatment” value in assay [2] (P < 0.05) was found to be 2. The “# Compounds perturbed by treatment” value in assay [2] (P < 0.1) is listed as 6. In assay [2] (Platform GC), the “Fold Change: TMS mevalonic acid lactone” value amounted to 0.1434, the “Fold Change: squalene” value is given as 0.1999, the “Fold Change: sugar?” value was found to be 0.4817 and the “Fold Change: tetradecanoic acid” value was found to be 0.07967. Moreover, in assay [2] (Platform GC), the “Fold Change: threonine2” value is on record as 0.5053, the “Fold Change: threonine3” value amounted to 0.2513, the “Fold Change: tms glutamine3” value is 0.7271 and the “Fold Change: tms lysine4” value is 0.3657. For the same compound, in assay [2] (Platform GC), the “Fold Change: tms tyrosine2” value was determined as 0.8643, the “Fold Change: tms tyrosine3” value stood at 0.3321 and the “Fold Change: valine” value is 0.2727. Besides, in assay [2] (Platform nLC), the “Fold Change, benzoic acid” value was found to be 0; the “Fold Change: retinoic acid” value worked out at 0; the “Fold Change: salicylic/HObenzoic” value came to 0; the “Fold Change: selenoDLmethionine” value is on record as −0.5748. Besides, in assay [2] (Platform nLC), the “Fold Change: serine” value is 0.3936, the “Fold Change: shikimic acid” value was determined as 0, the “Fold Change: sinapinic acid” value is 0 and the “Fold Change: sorbitol/mannitol” value was 0.365. Moreover, in assay [2] (Platform nLC), the “Fold Change: succinic” value was found to be 0.3094, the “Fold Change: sucrose” value is 0.3104, the “Fold Change: sugar-phosphate” value is on record as −0.05306 and the “Fold Change: tetradecanoic acid” value is recorded as 0.5495. Also, in assay [2] (Platform nLC), the “Fold Change: threonine/homoserin” value came out at 0.3257, the “Fold Change: thymine” value is recorded as 0, the “Fold Change: tryptophan” value was determined as 1.649 and the “Fold Change: tyrosine” value was determined as 0.2303. For the same compound, in assay [2] (Platform nLC), the “Fold Change: uracil” value was 1.256, the “Fold Change: uridine” value was determined as 0.3463, the “Fold Change: urocanic acid” value came to 0 and the “Fold Change: valine” value was determined as 0.3235. Besides, in assay [2] (Platform nLC), the “Fold Change: xanthosineDiH2O” value was determined as 0 and the “Fold Change: zeatin” value is listed as 0. Further, in assay [2] (Platform pLC), the “Fold Change: riboflavin” value amounted to 0, the “Fold Change: selenoDLmethionine” value is −0.6865, the “Fold Change: serine” value is listed as 0.11 and the “Fold Change: sugar-phosphate” value is listed as 0. Also, in assay [2] (Platform pLC), the “Fold Change: thiamine” value was 0, the “Fold Change: threonine/homoserin” value was 0.1604, the “Fold Change: thymine” value worked out at 0 and the “Fold Change: tryptophan” value stood at 0. Also, in assay [2] (Platform pLC), the “Fold Change: tyrosine” value is on record as 0.1099, the “Fold Change: uric acid” value is listed as 0, the “Fold Change: urocanic acid” value was determined as 0 and the “Fold Change: xanthosine(diH2O)” value is listed as 0. The “Fold Change: zeatin” value in assay [2] (Platform pLC) was 0. Further, in assay [3], the “Number of Pathways Affected by at Least One Gene, # Pathways” value was determined as 79.
`COC(=O)c1cc(Oc2ccc(Cl)cc2Cl)ccc1[N+](=O)[O-]` [Bifenox]: the “gene expression profile correlation to acifluorfen (r)” value in assay [4] stood at 0.151. Further, the “characteristic symptoms (morphological phenotype)” value in assay [5] is “Necrotic leaf flecks”.

The record behind these values is US20040002842A1, “Methods and systems for analyzing complex biological systems” (priority 2001, published 2004).
